The target in test [1] is CDK7/CyclinH/Mat1 (Homo sapiens, UniProt P50613). In words: ADP Glo kinase assay, CDK7/CyclinH/Mat1. It counts as biochemical. The conditions noted are these: for Ki: Km ATP, read-out: Enzymatic inhibition, Ki, CDK7 H; for remaining activity at 1 µM: compound at 1 μM, read-out: Residual enzymatic activity (%) at 1 μM, CDK7 H. The procedure, abridged:
(§1)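 10-pt 1:3 dilution series, 10-0.0005 μM, 0.5% DMSO; RT reaction, optimised time; stopped with ADP Glo reagent.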
(In general: ADP-Glo turns the ADP formed in a reaction into a luminescent signal.)

Test [2] concerns the target CDK2/CyclinA2 (Homo sapiens, UniProt P24941). In words: ADP Glo kinase assay, CDK2/CyclinA2. As to conditions: for remaining activity at 1 µM: compound at 1 μM, read-out: Residual enzymatic activity (%) at 1 μM, CDK2 A; for Ki: Km ATP, read-out: Enzymatic inhibition, Ki, CDK2 A. The test is classed as biochemical. The procedure, abridged:
as §1

Test [3] concerns the target T1, FLT3-ITD (Homo sapiens, UniProt P36888).
T1 sequence (P36888 1-993): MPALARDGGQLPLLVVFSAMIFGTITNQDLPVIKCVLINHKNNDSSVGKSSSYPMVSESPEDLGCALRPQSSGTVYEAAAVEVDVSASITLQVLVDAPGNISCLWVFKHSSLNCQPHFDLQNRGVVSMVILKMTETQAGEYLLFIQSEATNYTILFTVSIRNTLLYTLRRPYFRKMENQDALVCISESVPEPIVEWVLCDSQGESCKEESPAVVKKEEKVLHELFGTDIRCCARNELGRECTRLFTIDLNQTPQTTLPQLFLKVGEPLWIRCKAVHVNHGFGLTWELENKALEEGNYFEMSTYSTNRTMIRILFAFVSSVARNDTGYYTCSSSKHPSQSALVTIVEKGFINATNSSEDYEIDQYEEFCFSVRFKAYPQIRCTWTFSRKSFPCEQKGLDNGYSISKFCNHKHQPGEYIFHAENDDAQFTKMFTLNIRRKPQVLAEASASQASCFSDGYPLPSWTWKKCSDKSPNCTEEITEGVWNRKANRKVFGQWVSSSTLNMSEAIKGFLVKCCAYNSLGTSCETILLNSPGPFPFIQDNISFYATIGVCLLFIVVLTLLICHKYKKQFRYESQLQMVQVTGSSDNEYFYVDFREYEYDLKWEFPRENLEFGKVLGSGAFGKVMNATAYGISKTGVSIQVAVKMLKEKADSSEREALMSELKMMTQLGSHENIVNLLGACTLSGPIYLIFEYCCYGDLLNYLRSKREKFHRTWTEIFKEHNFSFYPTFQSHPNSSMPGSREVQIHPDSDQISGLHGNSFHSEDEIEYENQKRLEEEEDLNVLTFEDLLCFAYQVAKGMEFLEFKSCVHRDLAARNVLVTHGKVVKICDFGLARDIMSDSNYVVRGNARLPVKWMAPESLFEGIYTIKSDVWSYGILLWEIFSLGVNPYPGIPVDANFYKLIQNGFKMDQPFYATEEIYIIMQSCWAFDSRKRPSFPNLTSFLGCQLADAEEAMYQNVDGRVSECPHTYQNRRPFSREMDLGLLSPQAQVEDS
The test can be described thus: ADP Glo kinase assay, FLT3-ITD. The test is classed as biochemical. As to conditions: for Ki: Km ATP 100 μM, read-out: Enzymatic inhibition, Ki, FLT3-ITD. The procedure, abridged:
as §1

For test [4], the system named is MV-4-11. The test can be described thus: Proliferation assay (resazurin, leukemia cell lines), MV-4-11. The test is classed as cell-based. As to conditions: Homo sapiens, MV4-11, read-out: 72 h Growth inhibition GI50, MV-4-11 cells. An excerpt:
The following compounds were used as comparators.
In general terms: Alamar Blue is a resazurin reagent that responds to reducing activity.

For test [5], the target named is CDK1/CyclinB (Homo sapiens, UniProt P06493). In words: ADP Glo kinase assay, CDK1/CyclinB. The test is classed as biochemical. As to conditions: for Ki: Km ATP, read-out: Enzymatic inhibition, Ki, CDK1 B; for remaining activity at 1 µM: compound at 1 μM, read-out: Residual enzymatic activity (%) at 1 μM, CDK1 B. An outline of the steps: as §1
Sequence of CDK1/CyclinB (P06493 whole entry, species assumed): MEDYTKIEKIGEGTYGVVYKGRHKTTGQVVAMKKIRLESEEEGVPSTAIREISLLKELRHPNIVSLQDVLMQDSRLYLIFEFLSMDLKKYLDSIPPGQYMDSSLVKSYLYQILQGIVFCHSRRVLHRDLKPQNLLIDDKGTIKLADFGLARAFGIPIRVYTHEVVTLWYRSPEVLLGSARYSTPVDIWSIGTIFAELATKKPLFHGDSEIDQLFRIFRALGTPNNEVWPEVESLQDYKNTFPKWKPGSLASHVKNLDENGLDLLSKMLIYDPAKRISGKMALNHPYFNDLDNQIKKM
Sequence of CDK1/CyclinB (P14635 whole entry partner, species assumed): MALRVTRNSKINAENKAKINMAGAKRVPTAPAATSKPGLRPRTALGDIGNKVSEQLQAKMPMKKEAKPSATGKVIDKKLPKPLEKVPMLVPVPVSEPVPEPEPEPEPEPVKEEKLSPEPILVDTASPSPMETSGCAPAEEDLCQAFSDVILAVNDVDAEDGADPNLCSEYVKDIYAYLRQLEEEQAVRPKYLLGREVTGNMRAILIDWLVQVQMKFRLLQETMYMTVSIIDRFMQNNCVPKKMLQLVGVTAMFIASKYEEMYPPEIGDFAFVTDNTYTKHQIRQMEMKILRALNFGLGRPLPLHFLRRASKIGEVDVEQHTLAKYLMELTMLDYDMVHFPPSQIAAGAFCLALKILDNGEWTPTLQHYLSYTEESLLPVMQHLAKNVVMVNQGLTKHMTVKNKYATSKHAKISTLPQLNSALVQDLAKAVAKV
Test [6] deals with CDK4/CyclinD1 (Homo sapiens, UniProt P11802). The test can be described thus: ADP Glo kinase assay, CDK4/CyclinD1. It counts as biochemical. As to conditions: for remaining activity at 1 µM: compound at 1 μM, read-out: Residual enzymatic activity (%) at 1 μM, CDK4 D1. An outline of the steps:
as §1

Test [7] deals with CDK9/CyclinT1 (Homo sapiens, UniProt P50750). The test can be described thus: ADP Glo kinase assay, CDK9/CyclinT1. It counts as biochemical. The conditions noted are these: CDK9/CyclinT1; Km ATP; read-out: Enzymatic inhibition, Ki, CDK9 T1. The procedure, abridged: as §1
Sequence of CDK9/CyclinT1 (P50750 whole entry, species assumed): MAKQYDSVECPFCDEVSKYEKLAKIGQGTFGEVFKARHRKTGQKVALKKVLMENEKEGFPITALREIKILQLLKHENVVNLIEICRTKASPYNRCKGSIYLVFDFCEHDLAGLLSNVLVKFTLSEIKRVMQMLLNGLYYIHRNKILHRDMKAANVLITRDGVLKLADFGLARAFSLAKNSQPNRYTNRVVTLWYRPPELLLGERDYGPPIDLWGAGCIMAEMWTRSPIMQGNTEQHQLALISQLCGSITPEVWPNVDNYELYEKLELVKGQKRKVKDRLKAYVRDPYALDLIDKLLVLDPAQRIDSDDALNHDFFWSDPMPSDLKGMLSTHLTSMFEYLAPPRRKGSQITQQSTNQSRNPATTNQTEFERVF
Sequence of CDK9/CyclinT1 (O60563 whole entry partner, species assumed): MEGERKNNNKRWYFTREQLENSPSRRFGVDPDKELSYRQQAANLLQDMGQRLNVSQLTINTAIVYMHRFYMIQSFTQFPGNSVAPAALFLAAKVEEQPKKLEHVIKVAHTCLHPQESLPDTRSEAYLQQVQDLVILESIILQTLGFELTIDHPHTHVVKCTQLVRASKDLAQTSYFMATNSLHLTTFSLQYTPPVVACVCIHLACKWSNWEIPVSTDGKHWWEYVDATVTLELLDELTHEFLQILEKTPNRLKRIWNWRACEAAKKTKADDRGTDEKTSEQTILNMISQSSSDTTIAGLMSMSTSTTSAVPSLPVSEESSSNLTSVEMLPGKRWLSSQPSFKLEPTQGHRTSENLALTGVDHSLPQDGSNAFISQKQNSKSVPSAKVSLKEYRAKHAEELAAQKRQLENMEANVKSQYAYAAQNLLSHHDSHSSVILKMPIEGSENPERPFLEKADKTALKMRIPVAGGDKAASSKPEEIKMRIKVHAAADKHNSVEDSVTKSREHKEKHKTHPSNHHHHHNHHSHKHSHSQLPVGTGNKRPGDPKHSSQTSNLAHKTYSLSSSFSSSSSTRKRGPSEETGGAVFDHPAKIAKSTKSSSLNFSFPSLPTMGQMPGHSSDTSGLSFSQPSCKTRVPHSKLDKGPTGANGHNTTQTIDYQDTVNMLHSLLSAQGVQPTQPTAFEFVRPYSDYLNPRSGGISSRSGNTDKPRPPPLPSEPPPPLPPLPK
Test [8] addresses CDK6/CyclinD3 (Homo sapiens, UniProt Q00534). In words: ADP Glo kinase assay, CDK6/CyclinD3. As to conditions: for Ki: Km ATP, read-out: Enzymatic inhibition, Ki, CDK6 D3; for remaining activity at 1 µM: compound at 1 μM, read-out: Residual enzymatic activity (%) at 1 μM, CDK6 D3. The test is classed as biochemical. The procedure, abridged:
as §1

The structures appear in SMILES notation.

Sequence of CDK7/CyclinH/Mat1 (P50613 whole entry, species assumed): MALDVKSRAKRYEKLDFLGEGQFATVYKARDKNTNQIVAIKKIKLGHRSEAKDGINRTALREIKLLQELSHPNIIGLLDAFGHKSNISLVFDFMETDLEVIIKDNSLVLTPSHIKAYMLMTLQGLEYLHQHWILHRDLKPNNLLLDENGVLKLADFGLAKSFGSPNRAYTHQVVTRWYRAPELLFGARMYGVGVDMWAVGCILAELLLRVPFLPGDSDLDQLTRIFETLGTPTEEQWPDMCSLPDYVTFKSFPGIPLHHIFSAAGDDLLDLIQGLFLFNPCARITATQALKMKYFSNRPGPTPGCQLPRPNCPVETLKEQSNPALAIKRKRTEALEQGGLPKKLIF
Sequence of CDK7/CyclinH/Mat1 (P51946 whole entry partner, species assumed): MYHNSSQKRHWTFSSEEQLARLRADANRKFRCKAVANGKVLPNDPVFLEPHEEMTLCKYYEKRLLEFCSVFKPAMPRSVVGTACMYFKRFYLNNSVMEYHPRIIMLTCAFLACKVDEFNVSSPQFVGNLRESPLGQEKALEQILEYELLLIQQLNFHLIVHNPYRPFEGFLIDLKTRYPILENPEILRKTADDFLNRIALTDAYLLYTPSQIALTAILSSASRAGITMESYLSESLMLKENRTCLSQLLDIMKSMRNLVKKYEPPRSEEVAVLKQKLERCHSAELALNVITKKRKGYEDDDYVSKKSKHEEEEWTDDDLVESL
Sequence of CDK7/CyclinH/Mat1 (P51948 whole entry partner, species assumed): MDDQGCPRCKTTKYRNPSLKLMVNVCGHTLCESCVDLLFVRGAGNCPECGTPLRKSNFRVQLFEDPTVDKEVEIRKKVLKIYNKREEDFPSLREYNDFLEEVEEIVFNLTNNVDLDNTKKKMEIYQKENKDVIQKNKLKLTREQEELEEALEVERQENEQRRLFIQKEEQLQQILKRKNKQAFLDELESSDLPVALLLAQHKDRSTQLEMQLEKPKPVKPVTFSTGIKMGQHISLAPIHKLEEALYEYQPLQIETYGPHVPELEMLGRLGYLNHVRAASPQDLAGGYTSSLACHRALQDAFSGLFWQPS
Sequence of CDK6/CyclinD3 (Q00534 whole entry, species assumed): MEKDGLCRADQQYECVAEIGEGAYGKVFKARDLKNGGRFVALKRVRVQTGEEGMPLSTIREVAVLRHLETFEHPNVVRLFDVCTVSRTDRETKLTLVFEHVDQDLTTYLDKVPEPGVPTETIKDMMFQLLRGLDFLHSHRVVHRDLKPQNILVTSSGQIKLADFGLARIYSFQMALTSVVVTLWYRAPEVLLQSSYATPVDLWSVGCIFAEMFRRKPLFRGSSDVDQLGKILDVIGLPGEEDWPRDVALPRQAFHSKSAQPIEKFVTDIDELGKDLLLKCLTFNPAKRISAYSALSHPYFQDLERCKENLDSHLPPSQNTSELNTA
Sequence of CDK6/CyclinD3 (P30281 whole entry partner, species assumed): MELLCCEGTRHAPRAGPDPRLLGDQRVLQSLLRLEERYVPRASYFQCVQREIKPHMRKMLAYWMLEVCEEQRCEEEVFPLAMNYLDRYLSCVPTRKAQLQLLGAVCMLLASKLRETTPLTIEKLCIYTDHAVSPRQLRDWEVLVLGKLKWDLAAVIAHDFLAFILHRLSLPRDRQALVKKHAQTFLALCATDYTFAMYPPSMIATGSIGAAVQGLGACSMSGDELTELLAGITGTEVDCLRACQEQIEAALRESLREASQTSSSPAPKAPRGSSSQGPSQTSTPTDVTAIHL
Sequence of CDK4/CyclinD1 (P11802 whole entry, species assumed): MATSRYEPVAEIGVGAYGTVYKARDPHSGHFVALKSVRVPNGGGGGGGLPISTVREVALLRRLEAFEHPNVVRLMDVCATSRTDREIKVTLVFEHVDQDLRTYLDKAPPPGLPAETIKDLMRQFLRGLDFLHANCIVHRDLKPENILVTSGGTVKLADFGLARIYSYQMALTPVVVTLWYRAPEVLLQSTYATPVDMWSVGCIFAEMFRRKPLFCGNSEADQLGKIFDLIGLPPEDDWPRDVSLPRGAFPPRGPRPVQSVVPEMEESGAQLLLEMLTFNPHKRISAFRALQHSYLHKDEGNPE
Sequence of CDK4/CyclinD1 (P24385 whole entry partner, species assumed): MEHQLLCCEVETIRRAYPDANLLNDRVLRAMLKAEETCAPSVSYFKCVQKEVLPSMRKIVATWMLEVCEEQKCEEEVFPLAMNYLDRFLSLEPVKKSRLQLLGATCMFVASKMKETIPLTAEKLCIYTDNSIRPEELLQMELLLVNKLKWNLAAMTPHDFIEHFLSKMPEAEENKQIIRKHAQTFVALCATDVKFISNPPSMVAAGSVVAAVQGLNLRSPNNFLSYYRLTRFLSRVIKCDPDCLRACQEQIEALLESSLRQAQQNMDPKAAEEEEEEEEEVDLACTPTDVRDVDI

By Ki is commonly meant the dissociation constant of the complex between target and ligand, obtained from inhibition or displacement. In general, GI50 refers to the concentration that inhibits growth by half. Turning to `CS(=O)(=O)N1CCN(c2ccc(Nc3nccc(-c4cnc5ccc(-c6cncnc6)cn45)n3)cn2)CC1` [Compound 20, N-(6-(4-(Methylsulfonyl)piperazin-1-yl)pyridin-3-yl)-4-(6-(pyrimidin-5-yl)imidazo[1,2-a]pyridin-3-yl)pyrimidin-2-amine], the Ki in test [1] is 890 nM; in test [3], 1450 nM; in test [5] it was greater than 5000 nM; in test [7], 56 nM; in test [8] it was greater than 5000 nM. The remaining activity at 1 µM is 41% in test [2] and 86% in test [6]. Besides, the GI50 in test [4] came out at 94 nM.

For the compound `CS(=O)(=O)N1CCN(c2ccc(Nc3nccc(-c4cnc5ccc(-c6cccs6)cn45)n3)cn2)CC1` [Compound 21, N-(6-(4-(Methylsulfonyl)piperazin-1-yl)pyridin-3-yl)-4-(6-(thiophen-2-yl)imidazo[1,2-a]pyridin-3-yl)pyrimidin-2-amine], the Ki in test [1] is 3970 nM; in test [3] it was 6 nM; in test [5], 635 nM; in test [7], 8 nM; in test [8], greater than 5000 nM. Moreover, the values for the remaining activity at 1 µM in test [2] and in test [6] were 28% and 33%, respectively. For the same compound, in test [4], the GI50 is 11 nM.

In the case of `CN1CCN(c2ccc(Nc3nccc(-c4cnc5ccc(Cl)cn45)n3)cn2)CC1` [Compound 22, 4-(6-Chloroimidazo[1,2-a]pyridin-3-yl)-N-(6-(4-methylpiperazin-1-yl)pyridin-3-yl) pyrimidin-2-amine], the Ki turned out to be 770 nM in test [1]; 38 nM in test [2]; 5 nM in test [3]; 199 nM in test [5]; 94 nM in test [6] (Km ATP, read-out: Enzymatic inhibition, Ki, CDK4 D1); 10 nM in test [7]. Moreover, the Ki in test [8] was determined as 243 nM. In addition, the 50% growth inhibitory concentration (GI50) in test [4] came to 6 nM.

As for `c1ccc(-c2ccc3ncc(-c4ccnc(Nc5ccc(N6CCC6)nc5)n4)n3c2)cc1` [Compound 25, N-(6-(Azetidin-1-yl)pyridin-3-yl)-4-(6-phenylimidazo[1,2-a]pyridin-3-yl)pyrimidin-2-amine], the inhibitory constant (Ki) was found to be 297 nM in test [1], 1080 nM in test [2], 5 nM in test [3] and 96 nM in test [7]. The GI50 in test [4] was 740 nM. The figures for the remaining activity at 1 µM in test [5], in test [6] and in test [8] were 100%, 94% and 44%, respectively.

Consider `Brc1ccc2ncc(-c3ccnc(Nc4ccc(N5CCCC5)nc4)n3)n2c1` [Compound 26, 4-(6-Bromoimidazo[1,2-a]pyridin-3-yl)-N-(6-(pyrrolidin-1-yl)pyridin-3-yl)pyrimidin-2-amine], for which the inhibition constant Ki in test [1] was greater than 5000 nM; in test [3], 91 nM; in test [7], 261 nM. The remaining activity at 1 µM was determined as 27% in test [2], 60% in test [5], 92% in test [6] and 53% in test [8]. In addition, in test [4], the GI50 amounted to 37 nM.

As for `c1ccc(-c2ccc3ncc(-c4ccnc(Nc5ccc(N6CCCC6)nc5)n4)n3c2)cc1` [Compound 27, 4-(6-Phenylimidazo[1,2-a]pyridin-3-yl)-N-(6-(pyrrolidin-1-yl)pyridin-3-yl)pyrimidin-2-amine], the inhibition constant (Ki) in test [1] was greater than 5000 nM; in test [3], 109 nM; in test [7], greater than 5000 nM. Further, the remaining activity at 1 µM stood at 37% in test [2], 84% in test [5], 97% in test [6] and 61% in test [8]. Besides, the GI50 in test [4] is 196 nM.

Consider `CN1CCN(c2ccc(Nc3ncc(F)c(-c4cnc5ccc(-c6ccccc6)cn45)n3)cn2)CC1` [Compound 28, 5-Fluoro-N-(6-(4-methylpiperazin-1-yl)pyridin-3-yl)-4-(6-phenylimidazo[1,2-a]pyridin-3-yl)pyrimidin-2-amine], for which the Ki in test [1] was 314 nM; in test [2], 1120 nM; in test [3], 65 nM; in test [7], 86 nM. For the same compound, the GI50 in test [4] stood at 233 nM. The remaining activity at 1 µM came to 61% in test [5], 76% in test [6] and 45% in test [8].

`COC(=O)N1CCC(c2ccc(Nc3ncc(F)c(-c4cnc5ccc(-c6ccccc6)cn45)n3)cn2)CC1` [Compound 29, Methyl 4-(5-((5-fluoro-4-(6-phenylimidazo[1,2-a]pyridin-3-yl)pyrimidin-2-yl)amino)pyridin-2-yl)piperidine-1-carboxylate]: the Ki was greater than 5000 nM in test [1], 257 nM in test [3] and greater than 5000 nM in test [7]. In addition, the remaining activity at 1 µM in test [2] stood at 25%; in test [5] it was 69%; in test [6] it was 98%; in test [8], 61%. Further, the GI50 in test [4] is 337 nM.

Regarding `Fc1cnc(Nc2ccc(N3CCN(CCN4CCOCC4)CC3)nc2)nc1-c1cnc2ccc(-c3ccccc3)cn12` [Compound 30, 5-Fluoro-N-(6-(4-(2-morpholinoethyl)piperazin-1-yl)pyridin-3-yl)-4-(6-phenylimidazo[1,2-a]pyridin-3-yl)pyrimidin-2-amine], the inhibitory constant (Ki) in test [1] turned out to be 223 nM; in test [2], 520 nM; in test [3], 148 nM; in test [7], 75 nM. In addition, the GI50 in test [4] was 56 nM. Also, the remaining activity at 1 µM in test [5] was 52%; in test [6] it was 65%; in test [8] it was 23%.

Turning to `CCOc1ccc(Nc2ncc(F)c(-c3cnc4ccc(-c5ccccc5)cn34)n2)cn1` [Compound 31, N-(6-Ethoxypyridin-3-yl)-5-fluoro-4-(6-phenylimidazo[1,2-a]pyridin-3-yl)pyrimidin-2-amine], the remaining activity at 1 µM came out at 100% in test [1]; 55% in test [2]; 97% in test [5]; 95% in test [6]; 41% in test [8]. The “Residual enzymatic activity (%) at 1 μM, FLT3-ITD” value in test [3] (compound at 1 μM) was 70%. Besides, the GI50 in test [4] is 600 nM. In test [7], the Ki is greater than 1000 nM.

Take `O=C(c1ccc(Nc2ncc(F)c(-c3cnc4ccc(-c5ccccc5)cn34)n2)cn1)N1CCCCC1` [Compound 32, (5-((5-Fluoro-4-(6-phenylimidazo[1,2-a]pyridin-3-yl)pyrimidin-2-yl)amino)pyridin-2-yl) (piperidin-1-yl)methanone]: the remaining activity at 1 µM in test [1] was 100%; in test [2], 89%; in test [5], 96%; in test [6], 91%; in test [8] it was 44%. Besides, the inhibitory constant (Ki) in test [3] and in test [7] was greater than 1000 nM in each case. In addition, the GI50 in test [4] stood at 620 nM.

As to `O=C(NC1CC1)c1ccc(Nc2ncc(F)c(-c3cnc4ccc(-c5ccccc5)cn34)n2)cn1` [Compound 33, N-Cyclopropyl-5-((5-fluoro-4-(6-phenylimidazo[1,2-a]pyridin-3-yl)pyrimidin-2-yl)amino) picolinamide], the remaining activity at 1 µM was 100% in test [1]; 83% in test [2]; 59% in test [5]; 96% in test [6]; 46% in test [8]. Moreover, the Ki in test [3] was greater than 1000 nM; in test [7], greater than 500 nM. Besides, the GI50 in test [4] was determined as 296 nM.

Values taken from US20240158391A1, “DERIVATIVES OF 4-(IMIDAZO[1,2-A]PYRIDIN-3-YL)-N-(PYRIDIN-3-YL) PYRIMIDIN-2- AMINE FOR TREATING PROLIFERATIVE DISEASES AND CONDITIONS” (AUCENTRA THERAPEUTICS PTY LTD, priority 2019, published 2024).
